Reference: patent US8686044B2, “Amide derivative, pest control agent containing the amide derivative, and use of the amide derivative” (Mitsui Chemicals Agro, Inc., priority 2008, dated 2014)

Key:
Type in all cases: in vivo
Plutella xylostella = assay: Pesticidal test against Plutella xylostella (cabbage leaf dip); conditions: foliar, 144 h, 2-stage larvae, examined after 6 days, 25° C., read-out: pesticidal rate; for pest or weed control at 1 ppm: concentration 1 ppm; for pest or weed control at 10 ppm: concentration 10 ppm
In short: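 Cabbage leaf pieces dipped 30 s in test solution at a predetermined concentration, air-dried, then offered to 2nd-instar larvae, five per group in duplicate. Held at 25° C; living and dead larvae counted after 6 days.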

Musca domestica = assay: Pesticidal test against Musca domestica (petri dish dry film); conditions: 24 h, concentration 100 ppm, female adults, examined after 1 day, 25° C., read-out: pesticidal rate
Method: Pesticidal Test against Musca domestica
1 ml of an acetone solution in which a test compound had been prepared at a predetermined concentration was added dropwise to a petri dish having a diameter of 9 cm, and air-dried, and then the female adults of Musca domestica were released and the petri dish was capped. They were left to stand in a thermostatic chamber at 25° C., and the numbers of the living pests and the dead pests were examined after 1 day. The test was carried out with five larvae per group in two replicates.

Spodoptera litura = assay: Pesticidal test against Spodoptera litura (cabbage leaf dip); conditions: foliar, 144 h, 2-stage larvae, examined after 6 days, 25° C., read-out: pesticidal rate; for pest or weed control at 10 ppm: concentration 10 ppm; for pest or weed control at 1 ppm: concentration 1 ppm
In short: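 Cabbage leaf pieces dipped 30 seconds in compound solution at a predetermined concentration and air-dried, then offered to second-stage larvae, five per group in two replicates. Held at 25° C. Living and dead larvae counted after 6 days.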

Laodelphax striatellus = assay: Pesticidal test against Laodelphax striatellus (rice seedling spray); conditions: 144 h, concentration 100 ppm, 3-stage larvae, examined after 6 days, 25° C., read-out: pesticidal rate
In short: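 Rice seedlings sprayed with 2.5 ml acetone solution of compound at a predetermined concentration, air-dried, then infested with third-stage Laodelphax striatellus larvae in capped water-containing tubes at 25 °C. Living and dead insects counted after 6 days; ten larvae per group, two replicates.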

N#Cc1ccc(C(=O)Nc2c(Br)cc(C(F)(C(F)(F)F)C(F)(F)F)cc2C(F)(F)F)c(F)c1NC(=O)c1ccc(Cl)nc1 [1-1968, N-(3-(2-bromo-4-(perfluoropropan-2-yl)-6-(trifluoromethyl)phenylcarbamoyl)-6-cyano-2-fluorophenyl)-6-chloronicotinamide]
≥ 70%: pest or weed control at 1 ppm (Plutella xylostella) | pest or weed control at 100 ppm (Musca domestica) | pest or weed control at 10 ppm (Spodoptera litura)

O=C(Nc1c(Br)cc(C(F)(C(F)(F)F)C(F)(F)F)cc1C(F)(F)F)c1cccc(NC(=O)c2ccccc2Cl)c1 [6-272]
≥ 70%: pest or weed control at 1 ppm (Plutella xylostella) | pest or weed control at 100 ppm (Musca domestica) | pest or weed control at 1 ppm (Spodoptera litura)

O=C(Nc1c(Br)cc(C(F)(C(F)(F)F)C(F)(F)F)cc1C(F)(F)F)c1cccc(NC(=O)c2ccc(F)cc2Cl)c1 [6-293]
≥ 70%: pest or weed control at 1 ppm (Plutella xylostella) | pest or weed control at 100 ppm (Musca domestica) | pest or weed control at 1 ppm (Spodoptera litura)

O=C(Nc1c(I)cc(C(F)(C(F)(F)F)C(F)(F)F)cc1C(F)(F)F)c1cccc(NC(=O)c2ccccc2Cl)c1 [6-428]
≥ 70%: pest or weed control at 1 ppm (Plutella xylostella) | pest or weed control at 100 ppm (Musca domestica) | pest or weed control at 1 ppm (Spodoptera litura)

O=C(Nc1c(I)cc(C(F)(C(F)(F)F)C(F)(F)F)cc1C(F)(F)F)c1cccc(NC(=O)c2cc(F)c(F)cc2Cl)c1 [6-450]
≥ 70%: pest or weed control at 1 ppm (Plutella xylostella) | pest or weed control at 100 ppm (Musca domestica) | pest or weed control at 1 ppm (Spodoptera litura)

O=C(Nc1c(I)cc(C(F)(C(F)(F)F)C(F)(F)F)cc1C(F)(F)F)c1cccc(NC(=O)c2ccc(Cl)cc2Br)c1 [6-452]
≥ 70%: pest or weed control at 10 ppm (Plutella xylostella) | pest or weed control at 100 ppm (Musca domestica) | pest or weed control at 1 ppm (Spodoptera litura)

O=C(Nc1c(I)cc(C(F)(C(F)(F)F)C(F)(F)F)cc1C(F)(F)F)c1cccc(NC(=O)c2ccc(F)cc2Br)c1 [6-453]
≥ 70%: pest or weed control at 1 ppm (Plutella xylostella) | pest or weed control at 100 ppm (Musca domestica) | pest or weed control at 1 ppm (Spodoptera litura)

O=C(Nc1c(I)cc(C(F)(C(F)(F)F)C(F)(F)C(F)(F)F)cc1I)c1cccc(NC(=O)c2c(F)cccc2F)c1F (centres unmarked) [6-1360]
≥ 70%: pest or weed control at 100 ppm (Laodelphax striatellus) | pest or weed control at 1 ppm (Plutella xylostella) | pest or weed control at 100 ppm (Musca domestica) | pest or weed control at 1 ppm (Spodoptera litura)

O=C(Nc1cccc(C(=O)Nc2c(I)cc(C(F)(C(F)(F)F)C(F)(F)C(F)(F)F)cc2I)c1F)c1cccnc1Cl (centres unmarked) [6-1374]
≥ 70%: pest or weed control at 100 ppm (Laodelphax striatellus) | pest or weed control at 1 ppm (Plutella xylostella) | pest or weed control at 100 ppm (Musca domestica) | pest or weed control at 1 ppm (Spodoptera litura)

O=C(Nc1cccc(C(=O)Nc2c(I)cc(C(F)(C(F)(F)F)C(F)(F)F)cc2C(F)(F)F)c1F)c1ccccc1Cl [6-1734]
≥ 70%: pest or weed control at 100 ppm (Laodelphax striatellus) | pest or weed control at 1 ppm (Plutella xylostella) | pest or weed control at 100 ppm (Musca domestica) | pest or weed control at 1 ppm (Spodoptera litura)

O=C(Nc1cccc(C(=O)Nc2c(I)cc(C(F)(C(F)(F)F)C(F)(F)C(F)(F)F)cc2C(F)(F)F)c1F)c1cccc(F)c1 (centres unmarked) [6-1810]
≥ 70%: pest or weed control at 100 ppm (Laodelphax striatellus) | pest or weed control at 1 ppm (Plutella xylostella) | pest or weed control at 100 ppm (Musca domestica) | pest or weed control at 1 ppm (Spodoptera litura)

CN(C(=O)c1ccccc1F)c1cccc(C(=O)Nc2c(Br)cc(C(F)(C(F)(F)F)C(F)(F)C(F)(F)F)cc2Br)c1 (centres unmarked) [7-39]
≥ 70%: pest or weed control at 1 ppm (Plutella xylostella) | pest or weed control at 100 ppm (Musca domestica) | pest or weed control at 1 ppm (Spodoptera litura)

CN(C(=O)c1ccccc1)c1cccc(C(=O)Nc2c(Br)cc(C(F)(C(F)(F)F)C(F)(F)C(F)(F)F)cc2C(F)(F)F)c1 (centres unmarked) [7-346]
≥ 70%: pest or weed control at 100 ppm (Laodelphax striatellus) | pest or weed control at 1 ppm (Plutella xylostella) | pest or weed control at 100 ppm (Musca domestica) | pest or weed control at 1 ppm (Spodoptera litura)

CN(C(=O)c1c(F)cccc1F)c1cccc(C(=O)Nc2c(Br)cc(C(F)(C(F)(F)F)C(F)(F)C(F)(F)F)cc2C(F)(F)F)c1 (centres unmarked) [7-368]
≥ 70%: pest or weed control at 100 ppm (Laodelphax striatellus) | pest or weed control at 1 ppm (Plutella xylostella) | pest or weed control at 100 ppm (Musca domestica) | pest or weed control at 1 ppm (Spodoptera litura)

CN(C(=O)c1ccccc1Cl)c1cccc(C(=O)Nc2c(I)cc(C(F)(C(F)(F)F)C(F)(F)F)cc2C(F)(F)F)c1 [7-428]
≥ 70%: pest or weed control at 1 ppm (Plutella xylostella) | pest or weed control at 100 ppm (Musca domestica) | pest or weed control at 1 ppm (Spodoptera litura)

CN(C(=O)c1ccc(F)cc1Cl)c1cccc(C(=O)Nc2c(I)cc(C(F)(C(F)(F)F)C(F)(F)F)cc2C(F)(F)F)c1 [7-449]
≥ 70%: pest or weed control at 1 ppm (Plutella xylostella) | pest or weed control at 100 ppm (Musca domestica) | pest or weed control at 1 ppm (Spodoptera litura)

CN(C(=O)c1cccc(F)c1)c1cccc(C(=O)Nc2c(I)cc(C(F)(C(F)(F)F)C(F)(F)C(F)(F)F)cc2I)c1F (centres unmarked) [7-1340]
≥ 70%: pest or weed control at 100 ppm (Laodelphax striatellus) | pest or weed control at 1 ppm (Plutella xylostella) | pest or weed control at 100 ppm (Musca domestica) | pest or weed control at 1 ppm (Spodoptera litura)

CN(C(=O)c1c(F)cccc1F)c1cccc(C(=O)Nc2c(I)cc(C(F)(C(F)(F)F)C(F)(F)C(F)(F)F)cc2I)c1F (centres unmarked) [7-1360]
≥ 70%: pest or weed control at 100 ppm (Laodelphax striatellus) | pest or weed control at 1 ppm (Plutella xylostella) | pest or weed control at 100 ppm (Musca domestica) | pest or weed control at 1 ppm (Spodoptera litura)

CN(C(=O)c1ccccc1)c1cccc(C(=O)Nc2c(Cl)cc(C(F)(C(F)(F)F)C(F)(F)F)cc2C(F)(F)F)c1F [7-1417]
≥ 70%: pest or weed control at 100 ppm (Laodelphax striatellus) | pest or weed control at 1 ppm (Plutella xylostella) | pest or weed control at 100 ppm (Musca domestica) | pest or weed control at 1 ppm (Spodoptera litura)

CN(C(=O)c1cccc(C#N)c1)c1cccc(C(=O)Nc2c(I)cc(C(F)(C(F)(F)F)C(F)(F)C(F)(F)F)cc2C(F)(F)F)c1F (centres unmarked) [7-1828]
≥ 70%: pest or weed control at 100 ppm (Laodelphax striatellus) | pest or weed control at 1 ppm (Plutella xylostella) | pest or weed control at 100 ppm (Musca domestica) | pest or weed control at 1 ppm (Spodoptera litura)

CN(C(=O)c1cccc(C#N)c1)c1cccc(C(=O)N(C)c2c(Br)cc(C(F)(C(F)(F)F)C(F)(F)F)cc2C(F)(F)F)c1 [9-290]
≥ 70%: pest or weed control at 100 ppm (Laodelphax striatellus) | pest or weed control at 1 ppm (Plutella xylostella) | pest or weed control at 1 ppm (Spodoptera litura)

CN(C(=O)c1ccc(C#N)cc1)c1cccc(C(=O)N(C)c2c(Br)cc(C(F)(C(F)(F)F)C(F)(F)F)cc2C(F)(F)F)c1 [9-291]
≥ 70%: pest or weed control at 100 ppm (Laodelphax striatellus) | pest or weed control at 1 ppm (Plutella xylostella) | pest or weed control at 1 ppm (Spodoptera litura)

CN(C(=O)c1cccnc1Cl)c1cccc(C(=O)N(C)c2c(Br)cc(C(F)(C(F)(F)F)C(F)(F)F)cc2C(F)(F)F)c1 [9-306]
≥ 70%: pest or weed control at 100 ppm (Laodelphax striatellus) | pest or weed control at 1 ppm (Plutella xylostella) | pest or weed control at 1 ppm (Spodoptera litura)

CN(C(=O)c1ccccc1)c1cccc(C(=O)N(C)c2c(Br)cc(C(F)(C(F)(F)F)C(F)(F)F)cc2C(F)(F)F)c1F [9-2164, N-(2-bromo-4-(perfluoropropan-2-yl)-6-(trifluoromethyl)phenyl)-2-fluoro-N-methyl-3-(N-methylbenzamide)benzamide]
≥ 70%: pest or weed control at 100 ppm (Laodelphax striatellus) | pest or weed control at 1 ppm (Plutella xylostella) | pest or weed control at 100 ppm (Musca domestica) | pest or weed control at 1 ppm (Spodoptera litura)

O=C(Nc1cccc(C(=O)Nc2c(Br)cc(C(F)(C(F)(F)F)C(F)(F)F)cc2C(F)(F)F)c1F)OCC(Cl)(Cl)Cl [11-777]
≥ 70%: pest or weed control at 1 ppm (Plutella xylostella) | pest or weed control at 100 ppm (Musca domestica) | pest or weed control at 1 ppm (Spodoptera litura)

O=C(Nc1cccc(C(=O)Nc2c(I)cc(C(F)(C(F)(F)F)C(F)(F)F)cc2C(F)(F)F)c1F)OCC(Cl)(Cl)Cl [11-835]
≥ 70%: pest or weed control at 1 ppm (Plutella xylostella) | pest or weed control at 100 ppm (Musca domestica) | pest or weed control at 1 ppm (Spodoptera litura)

CN(C(=O)OCC(Cl)(Cl)Cl)c1cccc(C(=O)Nc2c(Br)cc(C(F)(C(F)(F)F)C(F)(F)F)cc2C(F)(F)F)c1F [12-777]
≥ 70%: pest or weed control at 1 ppm (Plutella xylostella) | pest or weed control at 100 ppm (Musca domestica) | pest or weed control at 1 ppm (Spodoptera litura)

CN(C(=O)c1ccccc1)c1cccc(C(=O)Nc2c(Br)cc(C(F)(C(F)(F)F)C(F)(F)F)cc2C(F)(F)F)n1 [17-1103, N-(2-bromo-4-(perfluoropropan-2-yl)-6-(trifluoromethyl)phenyl)-6-(N-methylbenzamide)picolinamide]
≥ 70%: pest or weed control at 10 ppm (Plutella xylostella) | pest or weed control at 100 ppm (Musca domestica) | pest or weed control at 10 ppm (Spodoptera litura)

CN(C(=O)c1ccccc1)c1nc(C(=O)Nc2c(Br)cc(C(F)(C(F)(F)F)C(F)(F)F)cc2C(F)(F)F)cs1 [27-627]
≥ 70%: pest or weed control at 10 ppm (Plutella xylostella) | pest or weed control at 100 ppm (Musca domestica) | pest or weed control at 1 ppm (Spodoptera litura)
